Results as given in US20230116972A1, “CD38 MODULATORS AND METHODS OF USE THEREOF” (Cytokinetics, Inc., priority 2021, published 2023).

Experiments:
human CD38 = biological target: T1, human CD38 (Homo sapiens, UniProt P28907); experiment: human recombinant CD38 enzyme assay (hydrolysis of NAD+); type: biochemical; conditions: human recombinant CD38, 0.4 nM enzyme, 62.5 μM NAD+; read-out: hCD38 BioChem IC50
T1 sequence (P28907 1-300): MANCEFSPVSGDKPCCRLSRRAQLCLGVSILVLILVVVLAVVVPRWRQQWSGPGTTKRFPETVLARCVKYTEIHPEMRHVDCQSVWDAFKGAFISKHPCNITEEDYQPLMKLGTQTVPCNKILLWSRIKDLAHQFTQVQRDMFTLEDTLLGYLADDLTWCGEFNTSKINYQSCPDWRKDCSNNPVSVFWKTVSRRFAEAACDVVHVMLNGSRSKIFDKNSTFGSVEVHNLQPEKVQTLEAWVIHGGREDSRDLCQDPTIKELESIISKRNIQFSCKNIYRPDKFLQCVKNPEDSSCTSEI
Description: (§1) Compounds described herein were assayed for their ability to inhibit the hydrolysis of NAD+ by the protein CD38. The human and mouse recombinant enzyme assays measure the inhibition of the enzyme activity by compounds using recombinant enzymes and substrates in a buffered cell-free system. The assay conditions closely mimic cellular environments. Dose responses were measured using an assay to detect the hydrolysis of NAD+. All experiments were performed in the 384-well format. […] Enzyme reactions were initiated with the addition of 10 μL of a solution containing NAD+ substrate. Subsequent detection of remaining NAD+ was determined by first converting NAD+ to NADH using alcohol dehydrogenase, then using the resulting NADH to reduce resazurine to the fluorescent product resorufin. […] Following an incubation of 60 min at ambient temperature, 10 μL of 120 mM ethanol+20 U/ml alcohol dehydrogenase+30 mM semicarbazide+0.03 mM CD38 inhibitor in 50 mM HEPES, pH 7.5, 0.2 mg/ml BSA, was added and incubated at ambient temperature for 15 min. Then 10 μl 0.32 mM NaOH was added to stop the ADH reaction (plates incubated at ambient temperature for 15 min), followed by 30 μL of 0.05 mM resazurine+1000 mU/ml Diaphorase in 200 mM Tris-HCl, pH 7.7 for 15 min at ambient temperature. The plates were read for fluorescence (Excitation/Emission=540 nm/590 nm) using an EnVision plate reader. […] Note that, in Table 4, the “Compound No” corresponds to the compound numbers in Table 1.

mouse CD38 = biological target: T2, mouse CD38 (Mus musculus, UniProt P56528); experiment: mouse recombinant CD38 enzyme assay (hydrolysis of NAD+); type: biochemical; conditions: read-out: mCD38 BioChem IC50
T2 sequence (P56528 1-304): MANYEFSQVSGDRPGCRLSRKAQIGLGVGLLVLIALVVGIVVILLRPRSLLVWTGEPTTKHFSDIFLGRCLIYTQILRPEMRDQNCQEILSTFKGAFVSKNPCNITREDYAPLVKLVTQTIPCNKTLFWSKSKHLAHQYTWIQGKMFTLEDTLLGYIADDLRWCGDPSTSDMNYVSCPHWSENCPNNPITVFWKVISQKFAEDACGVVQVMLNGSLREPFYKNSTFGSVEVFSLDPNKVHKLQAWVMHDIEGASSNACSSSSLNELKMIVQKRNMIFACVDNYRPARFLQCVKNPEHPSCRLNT
Description: as §1

Question: How did the IC50 (human CD38) turn out when Cn1cncc1-c1ncc(Cl)c(C(=O)N[C@H]2CC[C@H](OC(F)F)CC2)n1 [Compound 323, 5-chloro-N-((1r,4r)-4-(difluoromethoxy)cyclohexyl)-2-(1-methyl-1H-imidazol-5-yl)pyrimidine-4-carboxamide] was run?
Answer: 22.1 nM

Question: And the IC50 (mouse CD38)?
Answer: 10.6 nM

Question: Which results are given for Cn1cncc1-c1nc(C(=O)N[C@H]2CC[C@H](OC(F)F)CC2)cc(C2CCC(F)(F)CC2)n1 [Compound 324, 6-(4,4-difluorocyclohexyl)-N-((1r,4r)-4-(difluoromethoxy)cyclohexyl)-2-(1-methyl-1H-imidazol-5-yl)pyrimidine-4-carboxamide]?
Answer: IC50 (human CD38): 15.9 nM; IC50 (mouse CD38): 2.1 nM

Question: For Cn1cncc1-c1ncc(Cl)c(C(=O)N[C@H]2CC[C@H](OC(F)(F)F)CC2)n1 [Compound 325, 5-chloro-2-(1-methyl-1H-imidazol-5-yl)-N-((1r,4r)-4-(trifluoromethoxy)cyclohexyl)pyrimidine-4-carboxamide], which IC50 (human CD38) is on record?
Answer: 29.8 nM

Question: And the IC50 (mouse CD38)?
Answer: 19.3 nM

Question: For Cc1cnc(-c2cncn2C)nc1C(=O)Nc1ccc(C(F)(F)F)nc1 [Compound 326, 5-methyl-2-(1-methyl-1H-imidazol-5-yl)-N-(6-(trifluoromethyl)pyridin-3-yl)pyrimidine-4-carboxamide], which IC50 (human CD38) is on record?
Answer: 3.4 nM

Question: What about the IC50 (mouse CD38) of the same molecule?
Answer: 1.4 nM

Question: For CO[C@H]1CC[C@H](NC(=O)c2cc(C3CC4(COC4)C3)nc(-c3cncn3C)n2)CC1 [Compound 327, N-((1r,4r)-4-methoxycyclohexyl)-2-(1-methyl-1H-imidazol-5-yl)-6-(2-oxaspiro[3.3]heptan-6-yl)pyrimidine-4-carboxamide], which IC50 (human CD38) is on record?
Answer: 22.1 nM

Question: What about the IC50 (mouse CD38) of the same molecule?
Answer: 2.6 nM

Question: For CO[C@H]1CC[C@H](NC(=O)c2nc(-c3cncn3C)ncc2C)CC1 [Compound 328, N-((1r,4r)-4-methoxycyclohexyl)-5-methyl-2-(1-methyl-1H-imidazol-5-yl)pyrimidine-4-carboxamide], which IC50 (human CD38) is on record?
Answer: 41.4 nM

Question: What about the IC50 (mouse CD38) of the same molecule?
Answer: 11.5 nM

Question: Which IC50 (human CD38) does the source give for CO[C@H]1CC[C@H](NC(=O)c2nc(-c3cncn3C)ncc2Cl)CC1 [Compound 329, 5-chloro-N-((1r,4r)-4-methoxycyclohexyl)-2-(1-methyl-1H-imidazol-5-yl)pyrimidine-4-carboxamide] here?
Answer: 34 nM

Question: And the IC50 (mouse CD38)?
Answer: 10.7 nM

Question: What does the source list for Cn1cncc1-c1ccnc(C(=O)Nc2ccc(OC3CCC(F)(F)CC3)nc2)n1 [Compound 330, N-(6-((4,4-difluorocyclohexyl)oxy)pyridin-3-yl)-4-(1-methyl-1H-imidazol-5-yl)pyrimidine-2-carboxamide]?
Answer: IC50 (human CD38): 5 nM; IC50 (mouse CD38): 9.8 nM

Question: With CO[C@H]1CC[C@H](NC(=O)c2cc(C3(O)CCC(F)(F)CC3)nc(-c3cncn3C)n2)CC1 [Compound 331, 6-(4,4-difluoro-1-hydroxycyclohexyl)-N-((1r,4r)-4-methoxycyclohexyl)-2-(1-methyl-1H-imidazol-5-yl)pyrimidine-4-carboxamide] as the molecule, how does the IC50 (human CD38) read?
Answer: 26 nM

Question: And the IC50 (mouse CD38)?
Answer: 4.7 nM

Question: With Cn1cncc1-c1nc(C(=O)Nc2ccc(C(C)(C)O)nc2)cc(C2CCOCC2)n1 [Compound 332, N-(6-(2-hydroxypropan-2-yl)pyridin-3-yl)-2-(1-methyl-1H-imidazol-5-yl)-6-(tetrahydro-2H-pyran-4-yl)pyrimidine-4-carboxamide] as the molecule, how does the IC50 (human CD38) read?
Answer: 11 nM

Question: And the IC50 (mouse CD38)?
Answer: 1.5 nM

Question: For CO[C@H]1CC[C@H](NC(=O)c2nc(-c3cncn3C)ncc2F)CC1 [Compound 333, 5-fluoro-N-((1r,4r)-4-methoxycyclohexyl)-2-(1-methyl-1H-imidazol-5-yl)pyrimidine-4-carboxamide], which IC50 (human CD38) is on record?
Answer: 12.8 nM

Question: And the IC50 (mouse CD38)?
Answer: 3.4 nM

Question: For Cn1cncc1-c1nc(C(=O)N[C@H]2CC[C@H](OC(F)(F)F)CC2)cc(C2CCOCC2)n1 [Compound 334, 2-(1-methyl-1H-imidazol-5-yl)-6-(tetrahydro-2H-pyran-4-yl)-N-((1r,4r)-4-(trifluoromethoxy)cyclohexyl)pyrimidine-4-carboxamide], which IC50 (human CD38) is on record?
Answer: 12.4 nM

Question: What about the IC50 (mouse CD38) of the same molecule?
Answer: 5.4 nM

Question: How did the IC50 (human CD38) turn out when Cc1cnc(-c2cncn2C)nc1C(=O)N[C@H]1CC[C@H](OC(F)F)CC1 [Compound 335, N-((1r,4r)-4-(difluoromethoxy)cyclohexyl)-5-methyl-2-(1-methyl-1H-imidazol-5-yl)pyrimidine-4-carboxamide] was run?
Answer: 28.7 nM

Question: What about the IC50 (mouse CD38) of the same molecule?
Answer: 13.5 nM

Question: With Cn1cncc1-c1nc(C(=O)Nc2ccc(C(C)(C)O)nc2)cc(C2CCC(F)(F)CC2)n1 [Compound 336, 6-(4,4-difluorocyclohexyl)-N-(6-(2-hydroxypropan-2-yl)pyridin-3-yl)-2-(1-methyl-1H-imidazol-5-yl)pyrimidine-4-carboxamide] as the molecule, how does the IC50 (human CD38) read?
Answer: 12.3 nM

Question: What about the IC50 (mouse CD38) of the same molecule?
Answer: 1.3 nM

Question: Which results are given for Cn1cncc1-c1nc(C(=O)N[C@H]2CC[C@H](OCC(F)(F)F)CC2)cc(C2CCOCC2)n1 [Compound 337, 2-(1-methyl-1H-imidazol-5-yl)-6-(tetrahydro-2H-pyran-4-yl)-N-((1r,4r)-4-(2,2,2-trifluoroethoxy)cyclohexyl)pyrimidine-4-carboxamide]?
Answer: IC50 (human CD38): 10.4 nM; IC50 (mouse CD38): 1.9 nM

Question: How did the IC50 (human CD38) turn out when Cn1cncc1-c1ncc(F)c(C(=O)Nc2ccc(OC(F)F)nc2)n1 [Compound 338, N-(6-(difluoromethoxy)pyridin-3-yl)-5-fluoro-2-(1-methyl-1H-imidazol-5-yl)pyrimidine-4-carboxamide] was run?
Answer: 1.8 nM

Question: What about the IC50 (mouse CD38) of the same molecule?
Answer: 1.5 nM

Question: For Cn1cncc1-c1nc(C(=O)N[C@H]2CC[C@H](OCC(F)(F)F)CC2)cc(C2CCC(F)(F)CC2)n1 [Compound 339, 6-(4,4-difluorocyclohexyl)-2-(1-methyl-1H-imidazol-5-yl)-N-((1r,4r)-4-(2,2,2-trifluoroethoxy)cyclohexyl)pyrimidine-4-carboxamide], which IC50 (human CD38) is on record?
Answer: 17.3 nM

Question: And the IC50 (mouse CD38)?
Answer: 2 nM

Question: Which IC50 (human CD38) does the source give for Cn1cncc1-c1ncc(F)c(C(=O)N[C@H]2CC[C@H](OC(F)(F)F)CC2)n1 [Compound 340, 5-fluoro-2-(1-methyl-1H-imidazol-5-yl)-N-((1r,4r)-4-(trifluoromethoxy)cyclohexyl)pyrimidine-4-carboxamide] here?
Answer: 11.9 nM

Question: What about the IC50 (mouse CD38) of the same molecule?
Answer: 6.3 nM

Question: Which results are given for Cn1cncc1-c1ncc(F)c(C(=O)N[C@H]2CC[C@H](OC(F)F)CC2)n1 [Compound 341, N-((1r,4r)-4-(difluoromethoxy)cyclohexyl)-5-fluoro-2-(1-methyl-1H-imidazol-5-yl)pyrimidine-4-carboxamide]?
Answer: IC50 (human CD38): 8.7 nM; IC50 (mouse CD38): 3.8 nM

Question: Which IC50 (human CD38) does the source give for Cn1cncc1-c1nc(C(=O)Nc2ccc(OC(F)F)nc2)cc(C2CCC(F)(F)CC2)n1 [Compound 342, 6-(4,4-difluorocyclohexyl)-N-(6-(difluoromethoxy)pyridin-3-yl)-2-(1-methyl-1H-imidazol-5-yl)pyrimidine-4-carboxamide] here?
Answer: 19.9 nM

Question: What about the IC50 (mouse CD38) of the same molecule?
Answer: 2.9 nM

Question: Which results are given for Cn1cncc1-c1ccnc(C(=O)N[C@H]2CC[C@H](OCC(F)(F)F)CC2)n1 [Compound 343, 4-(1-methyl-1H-imidazol-5-yl)-N-((1r,4r)-4-(2,2,2-trifluoroethoxy)cyclohexyl)pyrimidine-2-carboxamide]?
Answer: IC50 (human CD38): 24.3 nM; IC50 (mouse CD38): 13.6 nM

Question: Which results are given for COCCO[C@H]1CC[C@H](NC(=O)c2nccc(-c3cncn3C)n2)C1 [Compound 344, N-((1S,3S)-3-(2-methoxyethoxy)cyclopentyl)-4-(1-methyl-1H-imidazol-5-yl)pyrimidine-2-carboxamide]?
Answer: IC50 (human CD38): 417 nM; IC50 (mouse CD38): 46.9 nM

Question: Cn1cncc1-c1nc(C(=O)Nc2ccc(C(F)(F)F)nc2)cc(C2CC3(COC3)C2)n1 [Compound 345, 2-(1-methyl-1H-imidazol-5-yl)-6-(2-oxaspiro[3.3]heptan-6-yl)-N-(6-(trifluoromethyl)pyridin-3-yl)pyrimidine-4-carboxamide] was tested. Which IC50 (human CD38) did it give?
Answer: 3.3 nM

Question: And the IC50 (mouse CD38)?
Answer: 1 nM

Question: Which results are given for CO[C@H]1CC[C@H](NC(=O)c2nc(C(F)F)cc(-n3ccnc3)n2)CC1 [Compound 346, 4-(difluoromethyl)-6-(1H-imidazol-1-yl)-N-((1r,4r)-4-methoxycyclohexyl)pyrimidine-2-carboxamide]?
Answer: IC50 (human CD38): 109 nM; IC50 (mouse CD38): 30.1 nM

Question: Which IC50 (human CD38) does the source give for Cn1cncc1-c1cc(C(F)F)nc(C(=O)N[C@H]2CC[C@H](O)CC2)n1 [Compound 347, 4-(difluoromethyl)-N-((1r,4r)-4-hydroxycyclohexyl)-6-(1-methyl-1H-imidazol-5-yl)pyrimidine-2-carboxamide] here?
Answer: 81.9 nM

Question: What about the IC50 (mouse CD38) of the same molecule?
Answer: 6.2 nM
